Laboratory results reported in PMC4958397, “Synthesis, antibacterial and antiproliferative potential of some new 1-pyridinecarbonyl-4-substituted thiosemicarbazide derivatives” (Medicinal Chemistry Research, 2016).
Converted amounts (≈) assume the structure as drawn.

Assays:
[1] = test system: Escherichia coli ATCC 25922; assay: Disk diffusion, zone of bacterial growth inhibition; format: cell-based; details: for zone of inhibition at 100 µg/disc: Escherichia coli, ATCC25922, 100 μg of compound, read-out: Zone of bacterial growth inhibition, E.c
Text: (§1) Panel reference strains of bacteria from the American Type Culture Collection or Polish Collection of Microorganisms, including aerobic Gram-positive bacteria: Staphylococcus aureus ATCC 25923 and Staphylococcus epidermidis ATCC 12228, and aerobic Gram-negative bacteria: Escherichia coli ATCC 25922 and Pseudomonas aeruginosa ATCC 9027, as well as microaerobic Gram-positive bacteria: Lactobacillus spp., Lactobacillus acidophilus PCM 2105, Streptococcus mutans PCM 2502 and Streptococcus sanguinis PCM 2335, were used. Microbial suspensions with an optical density of 0.5 McFarland standard at 1.5 × 10^8 CFU/mL (CFU: colony forming unit) were prepared in sterile 0.9 % NaCl. Mueller–Hinton (M–H) broth and M–H agar (Oxoid Ltd., England) for aerobic strains, and MRS Broth Lactobacillus, MRS Agar Lactobacillus (BioMaxima S.A., Poland), BHI Broth and BHI agar (BioMaxima S.A., Poland) for microaerobic strains were used in the microbial tests.
(§2) The preliminary antibacterial activity of the carbazide derivatives against human pathogenic Gram-positive, Gram-negative aerobic and microaerobic bacteria was evaluated by measuring the zones of inhibition in the disk diffusion method (Murray et al., [1995]). Each compound (100 µg) was placed on Petri plates with agar medium (previously inoculated with 0.5 McFarland standards with the tested bacterial strains). After 18 h of incubation at 37 °C (for aerobic strains) or 40 h at 35 °C (for microaerobic strains), zones of microbial growth produced around the tested substances were measured and recorded as the diameters of inhibition.

[2] = test system: Streptococcus mutans PCM 2502; assay: as above; format: cell-based; details: for zone of inhibition at 100 µg/disc: Streptococcus mutans, PCM2502, 100 μg of compound, read-out: Zone of bacterial growth inhibition, S.m
Text: as §1, §2

[3] = test system: Pseudomonas aeruginosa ATCC 9027; assay: as above; format: cell-based; details: for zone of inhibition at 100 µg/disc: Pseudomonas aeruginosa, ATCC9027, 100 μg of compound, read-out: Zone of bacterial growth inhibition, P.a
Text: as §1, §2

[4] = test system: Lactobacillus spp.; assay: as above; format: cell-based; details: 100 μg of compound; for zone of inhibition at 100 µg/disc: Lactobacillus, read-out: Zone of bacterial growth inhibition, L.spp.
Text: as §1, §2

[5] = test system: Streptococcus sanguinis PCM 2335; assay: as above; format: cell-based; details: for zone of inhibition at 100 µg/disc: Streptococcus sanguinis, PCM2335, 100 μg of compound, read-out: Zone of bacterial growth inhibition, S.s
Text: as §1, §2

[6] = test system: Staphylococcus epidermidis ATCC 12228; assay: as above; format: cell-based; details: for zone of inhibition at 100 µg/disc: Staphylococcus epidermidis, ATCC12228, 100 μg of compound, read-out: Zone of bacterial growth inhibition, S.e
Text: as §1, §2

[7] = test system: Staphylococcus aureus ATCC 25923; assay: as above; format: cell-based; details: for zone of inhibition at 100 µg/disc: Staphylococcus aureus, ATCC25923, 100 μg of compound, read-out: Zone of bacterial growth inhibition, S.a
Text: as §1, §2

[8] = test system: Lactobacillus acidophilus PCM 210; assay: as above; format: cell-based; details: for zone of inhibition at 100 µg/disc: Lactobacillus acidophilus, PCM210, 100 μg of compound, read-out: Zone of bacterial growth inhibition, L.a
Text: as §1, §2

[9] = test system: aerobic Gram-positive bacteria; assay: Broth microdilution MIC, summary in text; format: cell-based; details: range over compounds and strains; read-out: MIC against aerobic Gram-positive bacteria
Text: as §1
(§3) A broth microdilution method was used to evaluate the minimum inhibition concentration (MIC) according to the CLSI document (CLSI performance standards for antimicrobial susceptibility testing, 2008, Eighteenth International Supplement, CLSI document M7-MIC, Clinical Laboratory Standards Institute, Wayne) with some modifications. […] A serial doubling dilution of the compounds was prepared in 96-well plates (200 μL per well). A suitable medium (M-H Broth, MRS Broth Lactobacillus, BHI Broth) was used as a diluent. The final concentrations of derivatives were 1000–0.015 μg/mL. Finally, 2 μL of inoculum of the tested bacterial strain (1.5 × 10^8 CFU/mL) was added to each well. The tests were performed either at 36 °C for 18 h (aerobic strains) or at 40 h (microaerobic strains). After incubation, the panel was digitally analyzed at 600 nm using the microplate reader Bio Tech Synergy (USA) with a dedicated software system. The growth intensity in each well was compared with the negative and positive controls.

[10] = test system: Lactobacillus acidophilus PCM 210; assay: Broth microdilution MIC; format: cell-based; details: for MIC: Lactobacillus acidophilus, PCM210, NA means inactive, read-out: Minimum inhibitory concentration (MIC), L. acidophilus
[11] = test system: Escherichia coli ATCC 25922; assay: Broth microdilution MIC; format: cell-based; details: NA means inactive; for MIC: Escherichia coli, ATCC25922, broth microdilution, read-out: Minimum inhibitory concentration (MIC), E. coli; for Minimum inhibitory concentration (MIC), E. coli: broth microdilution
Text: as §1, §3

[12] = test system: Streptococcus mutans PCM 2502; assay: Broth microdilution MIC; format: cell-based; details: for MIC: Streptococcus mutans, PCM2502, NA means inactive, read-out: Minimum inhibitory concentration (MIC), S. mutans
Text: as §1, §3

[13] = test system: Pseudomonas aeruginosa ATCC 9027; assay: Broth microdilution MIC; format: cell-based; details: for MIC: Pseudomonas aeruginosa, ATCC9027, NA means inactive, read-out: Minimum inhibitory concentration (MIC), P. aeruginosa
Text: as §1, §3

[14] = test system: Streptococcus sanguinis PCM 2335; assay: Broth microdilution MIC; format: cell-based; details: for MIC: Streptococcus sanguinis, PCM2335, NA means inactive, read-out: Minimum inhibitory concentration (MIC), S. sanguinis
Text: as §1, §3

[15] = test system: Staphylococcus epidermidis ATCC 12228; assay: Broth microdilution MIC; format: cell-based; details: for MIC: Staphylococcus epidermidis, ATCC12228, NA means inactive, read-out: Minimum inhibitory concentration (MIC), S. epidermidis
Text: as §1, §3

[16] = test system: Staphylococcus aureus ATCC 25923; assay: Broth microdilution MIC; format: cell-based; details: for MIC: Staphylococcus aureus, ATCC25923, NA means inactive, read-out: Minimum inhibitory concentration (MIC), S. aureus
Text: as §1, §3

[17] = test system: pathogenic microaerobic bacteria (causing dental caries); assay: Broth microdilution MIC, summary in text; format: cell-based; details: range over compounds and strains; read-out: MIC against pathogenic microaerobic bacteria
Text: as §1, §3

[18] = test system: tested bacterial strains; assay: Disk diffusion, summary over all tested strains; format: cell-based; details: 100 μg; range over strains
Text: as §1, with “Mueller–Hinton (M–H) broth and M–H agar (Oxoid Ltd., England) for aerobic strains, and MRS Broth Lactobacillus, MRS Agar Lactobacillus (BioMaxima S.A., Poland), BHI Broth and BHI agar (BioMaxima S.A., Poland) for microaerobic strains were used in the microbial tests.” left out
as §2, with “Each compound (100 µg) was placed on Petri plates with agar medium (previously inoculated with 0.5 McFarland standards with the tested bacterial strains).” left out

| SMILES | melting point [°C] | MIC [9] [µg/mL] | MIC [10] [µg/mL] | MIC [12] [µg/mL] | MIC [13] [µg/mL] | MIC [14] [µg/mL] | MIC [15] [µg/mL] | MIC [16] [µg/mL] | zone of inhibition at 100 µg/disc [1] [mm] | zone of inhibition at 100 µg/disc [2] [mm] | zone of inhibition at 100 µg/disc [3] [mm] | zone of inhibition at 100 µg/disc [4] [mm] | zone of inhibition at 100 µg/disc [5] [mm] | zone of inhibition at 100 µg/disc [6] [mm] | zone of inhibition at 100 µg/disc [7] [mm] | zone of inhibition at 100 µg/disc [8] [mm] | also measured |
| --- | --- | --- | --- | --- | --- | --- | --- | --- | --- | --- | --- | --- | --- | --- | --- | --- | --- |
| CSc1ccc(NC(=S)NNC(=O)c2ccncc2)cc1 [Compound 8, 4-(4-Methylthiophenyl)-1-(pyridin-4-yl)carbonylthiosemicarbazide] | 197 to 198 | – | – | – | – | – | – | – | 0 | 0 | 0 | 0 | 0 | 0 | 0 | 0 | – |
| O=C(NNC(=S)Nc1ccc(Cl)cc1Cl)c1ccncc1 [Compound 10, 4-(2,4-Dichlorophenyl)-1-(pyridin-4-yl)carbonylthiosemicarbazide] | – | 15.6 to 500 | 1000 (≈ 2930 µM) | 250 | 1000 | 1000 | 250 | 125 | 7 | 28 | 0 | 0 | 20 | 13 | 16 | 0 | MIC [11]: 1000 µg/mL |
| O=C(NNC(=S)NCCN1CCOCC1)c1ccccn1 [Compound 3, 4-(2-Morpholinoethyl)-1-(pyridin-2-yl)carbonylthiosemicarbazide] | 196 to 198 | – | – | – | – | – | – | – | 0 | 0 | 0 | 0 | 0 | 7 | 0 | 0 | – |
| CO/N=C(\C(=O)N[C@@H]1C(=O)N2C(C(=O)O)=C(C[N+]3(C)CCCC3)CS[C@H]12)c1csc(N)n1.Cl.[Cl-] [Cefepime, cefepime dihydrochloride, reference compound] | – | – | – | – | – | – | – | – | – | – | – | – | – | – | – | – | zones of inhibition, all tested strains [18]: 29–38 mm; Minimum inhibitory concentration (MIC), L. acidophilus ([10]; NA means inactive): 3.9 µg/mL; Zone of bacterial growth inhibition, E.c ([1]; 100 μg of compound): 35 mm; Zone of bacterial growth inhibition, S.m ([2]; 100 μg of compound): 32 mm; Zone of bacterial growth inhibition, P.a ([3]; 100 μg of compound): 29 mm; Zone of bacterial growth inhibition, L.spp. [4]: 29 mm; Zone of bacterial growth inhibition, S.s ([5]; 100 μg of compound): 29 mm; Zone of bacterial growth inhibition, S.e ([6]; 100 μg of compound): 36 mm; Zone of bacterial growth inhibition, S.a ([7]; 100 μg of compound): 38 mm; Zone of bacterial growth inhibition, L.a ([8]; 100 μg of compound): 31 mm; Minimum inhibitory concentration (MIC), E. coli [11]: 0.015 µg/mL; Minimum inhibitory concentration (MIC), S. mutans ([12]; NA means inactive): 0.122 µg/mL; Minimum inhibitory concentration (MIC), P. aeruginosa ([13]; NA means inactive): 0.488 µg/mL; Minimum inhibitory concentration (MIC), S. sanguinis ([14]; NA means inactive): 0.122 µg/mL; Minimum inhibitory concentration (MIC), S. epidermidis ([15]; NA means inactive): 0.976 µg/mL; Minimum inhibitory concentration (MIC), S. aureus ([16]; NA means inactive): 0.976 µg/mL |

Now from value to compound, other results behind:

| melting point [°C] | MIC [9] [µg/mL] | MIC [10] [µg/mL] | MIC [12] [µg/mL] | MIC [13] [µg/mL] | MIC [14] [µg/mL] | MIC [15] [µg/mL] | MIC [16] [µg/mL] | SMILES | zone of inhibition at 100 µg/disc [1] [mm] | zone of inhibition at 100 µg/disc [2] [mm] | zone of inhibition at 100 µg/disc [3] [mm] | zone of inhibition at 100 µg/disc [4] [mm] | zone of inhibition at 100 µg/disc [5] [mm] | zone of inhibition at 100 µg/disc [6] [mm] | zone of inhibition at 100 µg/disc [7] [mm] | zone of inhibition at 100 µg/disc [8] [mm] | also measured |
| --- | --- | --- | --- | --- | --- | --- | --- | --- | --- | --- | --- | --- | --- | --- | --- | --- | --- |
| 184 to 186 | 15.6 to 500 | 500 (≈ 1570 µM) | 31.2 | > 1000 | 31.2 | 125 | 250 | CSc1ccc(NC(=S)NNC(=O)c2ccccn2)cc1 [Compound 5, 4-(4-Methylthiophenyl)-1-(pyridin-2-yl)carbonylthiosemicarbazide] | 11 | 0 | 0 | 11 | 15 | 10 | 10 | 19 | MIC [17]: 7.81 to 500 µg/mL |
| 202 to 204 | – | – | – | – | – | – | – | O=C(NNC(=S)Nc1ccccc1F)c1ccncc1 [Compound 9, 4-(2-Fluorophenyl)-1-(pyridin-4-yl)carbonylthiosemicarbazide] | 0 | 0 | 0 | 0 | 0 | 0 | 0 | 0 | – |
| 182 to 184 | 15.6 to 500 | 125 (≈ 431 µM) | 250 | 500 | 500 | 15.6 | 31.2 | O=C(NNC(=S)Nc1ccccc1F)c1ccccn1 [Compound 1, 4-(2-Fluorophenyl)-1-(pyridin-2-yl)carbonylthiosemicarbazide] | 22 | 10 | 12 | 24 | 10 | 26 | 18 | 12 | MIC [17]: 7.81 to 500 µg/mL; MIC [11]: 62 to 125 µg/mL; Minimum inhibitory concentration (MIC), E. coli [11]: 62.5 µg/mL |
